Experimental data from patent US8114406B2, “Peptides and their utility in modulation of behavior of cells expressing α3β1 integrins” (The United States of America as represented by the …, priority 1999, dated 2012).
Where no end group is shown, it is not given here.

How the values were obtained:
MDA-MB-435 cells = experiment: MDA-MB-435 cell spreading on matrix proteins, inhibition by soluble peptide; type: cell-based, human; settings: 10 μM peptide 678 (FIG. 4A)
Description: FIGS. 4A and 4B are graphs illustrating the inhibition of breast carcinoma cell spreading on matrix proteins by peptide 678. […] Cell spreading is presented as mean±SD, n=3. Panel B: Inhibition of MDA-MB-435 cell attachment to surfaces coated with 10 μM peptide 678 (●) or laminin peptide GD6 (◯) was measured in the presence of the indicated concentrations of peptide 678 added in solution.
Adhesion assays of cells other than small cell lung carcinoma (SCLC)-Adhesion was measured on polystyrene or glass substrates coated with peptides or proteins as previously described (Guo et al., 1992). Peptides dissolved in PBS at 0.4 to 50 μM were incubated in polystyrene microliter plate wells overnight at 4° C. The wells were washed 3 times with distilled water. Adsorbed peptide was quantified using the BCA assay (Pierce Chemical) measuring absorbance at 570 and 630 nm as described by the supplier's protocol. The assay for adsorption was calibrated using purified peptide in solution as a standard. After blocking with 1% BSA in Dulbecco's PBS, adhesion assays were performed by adding cells suspended in DMEM (BAE cells) or medium 199 (human cells) containing 1 mg/ml BSA. Cell attachment and spreading was quantified microscopically.

HUVE cells = experiment: HUVE cell proliferation; type: cell-based, human
Description: Briefly, 100 μl of a 5×10^4 cell/ml suspension of BAE cells were seeded in triplicate into 96 well tissue culture plate in DMEM medium containing 1% FCS, 10 ng/ml of FGF2 and peptides at 1-40 μM concentrations. Cells were incubated for 72 h, and proliferation was measured using the Celltiter tetrazolium assay (Promega). […] Proliferation was determined at 72 h, and is presented as a percent of the control, mean±S.D., n=3 for experimental points and n=6 for control.
Cell proliferation was measured using the Cell-Titer colorimetric assay (Promega) as previously described (Vogel et al., 1993). A 100 μl volume of BAE cell suspension at 50,000 cells/ml in DMEM containing 1% FBS and supplemented with 10 ng/ml FGF2 was plated in triplicate in 96 well tissue culture plates either in the presence of peptides in solution or in wells that were pre-coated with 100 μl of the peptides at […] overnight and aspirated just before adding cells. Cells were grown for 72 hours at 37° C. in a humidified incubator with 5% CO2. HUVEC proliferation was measured by the same protocol but using medium 199 containing 5% FCS without heparin. HDME cell proliferation was measured in MCDB growth medium without heparin, VEGF, or FGF2.

Description for BAE cells: Direct adhesion of BAE cells to the adsorbed peptides or uncoated substrate (control) are presented as mean±SD, n=3. […] Two flasks of BAE cells were grown to confluence. One flask was harvested and replated in fresh medium at 25% confluency. Fresh medium was added at the same time to the second flask. After 16 h, cells from both flasks were dissociated using EDTA and adhesion was measured on substrates coated with 40 μg/ml TSP1, 10 μg/ml vitronectin, 20 μg/ml plasma fibronectin, or 5 μg/ml type I collagen. The percent spread cells after 60 min is presented as mean±SD, n=3 for a representative experiment.
Results are presented as mean±SD, n=3. […] The percent spread cells was determined at 60 min.
Results are expressed as percent of the response for untreated cells, mean±S.D., n=3.

FQGVLQNVRFVF [Peptide 678]
inhibition of BAE cell spreading on fibronectin or vitronectin substrates (BAE cells): did not inhibit
inhibition of BAE spreading on fibronectin (BAE cells; 30 μM (FIG. 12)): did not inhibit
inhibition of density-dependent BAE spreading on intact TSP1 and the TSP1 peptide (BAE cells; peptide added in solution): inhibited
endothelial cell attachment on immobilized peptide (BAE cells; peptides adsorbed at 10 μM (FIG. 11A)): attached specifically
inhibition of MDA-MB-435 spreading on TSP1 and murine laminin-1/entactin (MDA-MB-435 cells): strongly inhibited
inhibition of MDA-MB-435 spreading on fibronectin or type IV collagen (MDA-MB-435 cells): did not inhibit
HUVE cell proliferation, peptide in solution (HUVE cells; added in solution): significantly inhibited
HUVE cell proliferation on immobilized peptide (HUVE cells; immobilized on the substrate): increased their proliferation
